Test [1] has as its target T1, RfaE (Escherichia coli, UniProt P76658).
T1 construct: made in house; host or cells: E.coli
Put plainly: RfaE luminescent assay (inhibition of the enzymatic activity of RfaE). The format is biochemical, E.coli. Conditions: luminescent ATP detection; 3 nM RfaE, 0.2 µM β-heptose-7-phosphate, 0.2 µM ATP; 30 min pre-incubation. An excerpt: RfaE is a kinase sharing similarities with the ribokinases family. It catalyses an essential step of the biosynthesis of L-ADP-Heptose, namely the phosphorylation of β-heptose-7-phosphate (H7P) into β-heptose-1,7-bisphosphate (H1,7P). RfaE assays as described in the literature are essentially based on direct HLPC detection of the substrates H7P and ATP, and of the products H1,7P and ADP, raising obvious limitations for HTS applications. The assays described below are based either on luminescent ATP detection, or on fluorescent ADP detection. They are easily amenable to miniaturized formats and fast readouts as required by HTS.
The assay buffer "AB" contains 50 mM Hepes pH=7.5, 1 mM MnCl2, 25 mM KCI, 0.012% Triton-X100 and 1 mM DTT (Dithiothreitol). The following components are added in a white polystyrene Costar plate up to a final volume of 31 µL: 3 µL DMSO, or inhibitor dissolved in DMSO and 28 µL RfaE in AB. After 30min of pre-incubation at room temperature, 29 µL of Substrates mix in AB are added in each well to a final volume of 60 µL. This reaction mixture is then composed of 3 nM RfaE (produced in house from E.coli), 0.2 µM β -heptose-7-phosphate (in house synthesis) and 0.2 µM ATP (Sigma) in assay buffer. After 40min of incubation at room temperature, 200 µL of the revelation mix are added to a final volume of 260 µL, including the following constituents at the respective final concentrations: 2 nM luciferase (Sigma), 30 µM D-luciferin (Sigma), 100 µM N-acetylcysteamine (Aldrich). Luminescence intensity is immediately measured on an Analyst-HT (Molecular Devices) and converted into inhibition percentages.
For IC50 determinations, the inhibitor is tested at 6 to 10 different concentrations, and the related inhibitions are fitted to a classical langmuir equilibrium model using XLFIT (IDBS).

Test [2] has as its system E. coli K12 AcrAB- TolC-. Put plainly: Sensitization to complement killing assay (MIC with/without serum). Type of test: cell-based. The conditions noted are these: Escherichia coli, 18-22H at 35°C. The method, then: The Gram-negative bacteria E. coli K12 AcrAB-/TolC- (K12 strain for which efflux pump components AcrA, AcrB and TolC have been deleted) is grown on Müller Hinton agar (MHA) overnight at 35°C. Five well isolated colonies from overnight agar growth are then added to 10 mL of cation adjusted Müller-Hinton Broth (MH2) and incubated at 35°C with constant shaking for two hours to reach the exponential phase. The suspension is then diluted to obtain an inoculum of 1.5E+04 CFU/mL. Viable counts are obtained by plating 10 to 1000-fold dilutions of the suspension on MHA. A solution of decomplemented Foetal Bovine Serum (dFBS) is prepared by heating normal FBS at 56°C for 30min. Compound dilutions are prepared in DMSO/water 20/80 in polypropylene plates. The following components are added on a polystyrene sterile culture plate in a final volume of 100µL: 5µL of compound in 20% DMSO, 30µL of FBS (30% final) or dFBS (30% final) or MH2 (0% FBS), 65µL of bacterial suspension at 1.5e4 CFU/mL (final inoculum of 1e4 CFU/mL). After 18-22H at 35°C incubation, the MIC of the compound in the presence of FBS 30%, dFBS 30% or FBS 0% is determined by visual inspection of bacterial pellets.

pIC50: −log10 of the molar value. Like-named read-outs stand apart in the source and are kept apart here.

T1 sequence (P76658 whole entry): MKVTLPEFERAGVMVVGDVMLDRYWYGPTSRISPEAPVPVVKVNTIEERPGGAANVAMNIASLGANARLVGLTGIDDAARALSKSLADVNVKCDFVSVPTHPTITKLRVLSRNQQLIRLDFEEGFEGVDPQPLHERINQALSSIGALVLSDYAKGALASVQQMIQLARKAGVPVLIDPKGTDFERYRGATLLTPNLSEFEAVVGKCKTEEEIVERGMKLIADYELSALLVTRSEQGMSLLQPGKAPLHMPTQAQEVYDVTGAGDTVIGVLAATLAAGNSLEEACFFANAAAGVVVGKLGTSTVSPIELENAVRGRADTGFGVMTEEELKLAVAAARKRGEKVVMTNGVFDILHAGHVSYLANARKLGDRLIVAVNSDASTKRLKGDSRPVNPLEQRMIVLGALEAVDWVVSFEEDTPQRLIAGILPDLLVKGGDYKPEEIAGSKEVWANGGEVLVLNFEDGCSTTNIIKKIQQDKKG

For the compound `COc1ccc2sc(CNc3nncc(-c4c(C)cccc4O)n3)nc2c1` [Example 35, 2-(3-{[(5-Methoxy-1,3-benzothiazol-2-yl)methyl]amino}-1,2,4-triazin-5-yl)-3-methylphenol], in test [1], the pIC50 is 7.16.

In test [1], `COc1cccc(OC)c1-c1cnnc(N(CC(=O)O)Cc2nc3ccccc3s2)n1` [Example 90, {(1,3-Benzothiazol-2-ylmethyl)[5-(2,6-dimethoxyphenyl)-1,2,4-triazin-3-yl]amino}acetic acid] gave a pIC50 of 5.70.

On to `OCCOc1ccc2sc(CNc3nncc(-c4c(Cl)cccc4Cl)n3)nc2c1` [Example 16, 2-{[2-({[5-(2,6-Dichlorophenyl)-1,2,4-triazin-3-yl]amino}methyl)-1,3-benzothiazol-5-y]oxy}ethanol], for which the pIC50 in test [1] is 7.74.

In test [1], `CC(=O)COc1ccc2sc(CNc3nncc(-c4c(Cl)cccc4Cl)n3)nc2c1` [Example 20, 1-{[2-({[5-(2,6-Dichlorophenyl)-1,2,4-triazin-3-yl]amino}methyl)-1,3-benzothiazol-5-yl]oxy}acetone] gave a pIC50 of 7.11.

The compound `Cc1nc(CNc2nncc(-c3ccccc3Cl)n2)sc1C` [Example 9, 5-(2-Chlorophenyl)-N-[(4,5-dimethyl-1,3-thiazol-2-yl)methyl]-1,2,4-triazin-3-amine] showed a pIC50 in test [1] of 5.37. Compared with the last compound, the pIC50 is 1.74 log units lower.

With `COc1ccc2sc(CNc3nncc(-c4c(Cl)cccc4Cl)n3)nc2c1` [Example 15, 5-(2,6-Dichlorophenyl)-N-[(5-methoxy-1,3-benzothiazol-2-yl)methyl]-1,2,4-triazin-3-amine], in test [1], the pIC50 is 6.89.

Compound `Oc1cccc2sc(CNc3nncc(-c4ccccc4C(F)(F)F)n3)nc12` [Example 64, 2-[({5-[2-(Trifluoromethyl)phenyl]-1,2,4-triazin-3-yl}amino)methyl]-1,3-benzothiazol-4-ol] gave a pIC50 in test [1] of 5.25. This pIC50 is 1.64 log units lower than that of the compound before.

The compound `COc1ccc2sc(CNc3nncc(-c4ccc(N5CCNCC5)cc4Cl)n3)nc2c1` [Example 107, N-[(5-Methoxy-1,3-benzothiazol-2-yl)methyl]-5-(2-chloro-4-piperazin-1-ylphenyl)-1,2,4-triazin-3-amine] gave a pIC50 in test [1] of 6.17. Compared with the last compound, the pIC50 is 0.92 log units higher.

As for `O=C(O)COc1ccc2sc(CNc3nncc(-c4c(Cl)cccc4Cl)n3)nc2c1` [Example 17, {[2-({[5-(2,6-dichlorophenyl)-1,2,4-triazin-3-yl]amino}methyl)-1,3-benzothiazol-5-yl]oxy}acetic acid], in test [1], the pIC50 is 7.72.

The compound `COc1ccc2sc(CNc3nncc(-c4cc(-c5cccnc5)ccc4Cl)n3)nc2c1` [Example 99, 5-(2-Chloro-5-pyridin-3-ylphenyl)-N-[(5-methoxy-1,3-benzothiazol-2-yl)methyl]-1,2,4-triazin-3-amine] showed a pIC50 in test [1] of 6.82. Compared with the last compound, the pIC50 is 0.90 log units lower.

As for `COc1cccc(C)c1-c1cnnc(NCc2nc3cccnc3s2)n1` [Example 70, 5-(2-Methoxy-6-methylphenyl)-N-([1,3]thiazolo[5,4-b]pyridin-2-ylmethyl)-1,2,4-triazin-3-amine], the pIC50 in test [1] was 5.51.

Consider `COc1ccc2sc(CNc3nncc(-c4cc(-c5cn[nH]c5)ccc4Cl)n3)nc2c1` [Example 98, 5-[2-Chloro-5-(1H-pyrazol-4-yl)phenyl]-N-[(5-methoxy-1,3-benzothiazol-2-yl)methyl]-1,2,4-triazin-3-amine], for which the pIC50 in test [1] is 7.31.

Compound `COc1cccc(OC)c1-c1cnnc(NCc2nc3c(s2)CCCC3)n1` [Example 57, 5-(2,6-Dimethoxyphenyl)-N-(4,5,6,7-tetrahydro-1,3-benzothiazol-2-ylmethyl)-1,2,4-triazin-3-amine] gave a pIC50 in test [1] of 5.72.

`COc1ccc2sc(CNc3nncc(-c4c(C)cc(NC(=O)CN(C)C)cc4C)n3)nc2c1` [Example 75, 2-Dimethylamino-N-(4-{3-[(5-methoxy-benzothiazol-2-ylmethyl)-amino]-[1,2,4]triazin-5-yl}-3,5-dimethyl-phenyl)-acetamide]: the negative-log IC50 (pIC50) in test [1] was 6.72.

Take `COc1ccc2sc(CNc3nncc(-c4cc(-c5ccn[nH]5)ccc4Cl)n3)nc2c1` [Example 97, 5-[2-Chloro-5-(1H-pyrazol-3-yl)phenyl]-N-[(5-methoxy-1,3-benzothiazol-2-yl)methyl]-1,2,4-triazin-3-amine]: in test [1], the pIC50 is 7.28.

`Cc1cccc(O)c1-c1cnnc(NCc2nc3cc(NCc4nccs4)ccc3s2)n1` [Example 43, 3-Methyl-2-{3-[({5-[(1,3-thiazol-2-ylmethyl)amino]-1,3-benzothiazol-2-yl}methyl)amino]-1,2,4-triazin-5-yl}phenol] had a pIC50 in test [1] of 6.39.

`Oc1ccc2ccccc2c1-c1cnnc(NCc2nc3ccccc3s2)n1` [Example 32, 1-{3-[(Benzothiazol-2-ylmethyl)-amino]-[1,2,4]triazin-5-yl}-naphthalen-2-ol]: the pIC50 in test [1] was 7.20. This pIC50 is 0.81 log units higher than that of the compound before.

With `COc1ccc2ccccc2c1-c1cnnc(NCc2nc3ccccc3s2)n1` [Example 22, Benzothiazol-2-ylmethyl-[5-(2-methoxy-naphthalen-1-yl)-[1,2,4]triazin-3-yl]-amine], the pIC50 in test [1] was 6.89.

`COc1ccc2sc(CNc3nncc(-c4c(OC)ccc5ccccc45)n3)nc2c1` [Example 29, N-[(5-Methoxy-1,3-benzothiazol-2-yl)methyl]-5(2-methoxy-1-naphthyl)-1,2,4-triazin-3-amine]: in test [1], the pIC50 was 7.29.

Take `COc1ccc2sc(CNc3nncc(-c4cc(-c5cn(CCO)nn5)ccc4Cl)n3)nc2c1` [Example 100, 2-[4-(4-Chloro-3-{3-[(5-methoxy-benzothiazol-2-ylmethyl)-amino]-[1,2,4]triazin-5-yl}-phenyl)-[1,2,3]triazol-1-yl]-ethanol]: in test [1], the pIC50 was 6.59.

In turn, `CN(C)CCNC(=O)COc1ccc2sc(CNc3nncc(-c4c(Cl)cccc4Cl)n3)nc2c1` [Example 19, 2-(2-{[5-(2,6-Dichloro-phenyl)-[1,2,4]triazin-3-ylamino]-methyl}-benzothiazol-5-yloxy)-N-(2-dimethylamino-ethyl)-acetamide] gave a pIC50 in test [1] of 6.78. The pIC50 values of the last two compounds are within 0.2 log units of each other.

In test [1], `NCCSc1ccc2sc(CNc3nncc(-c4c(Cl)cccc4Cl)n3)nc2c1` [Example 94, N-({5-[(2-Aminoethyl)thio]-1,3-benzothiazol-2-yl}methyl)-5-(2,6-dichlorophenyl)-1,2,4-triazin-3-amine] gave a pIC50 of 6.60.

In turn, `NC(=O)COc1ccc2sc(CNc3nncc(-c4c(Cl)cccc4Cl)n3)nc2c1` [Example 21, 2-{[2-({[5-(2,6-Dichlorophenyl)-1,2,4-triazin-3-yl]amino}methyl)-1,3-benzothiazol-5-yl]oxy}acetamide] had a pIC50 in test [1] of 7.17. This pIC50 is 0.57 log units higher than that of the compound before.

`Oc1ccc2sc(CNc3nncc(-c4c(O)ccc5ccccc45)n3)nc2c1` [Example 33, 2-{[5-(2-Hydroxy-naphthalen-1-yl)-[1,2,4]triazin-3-ylamino]-methyl}-benzothiazol-5-ol]: the pIC50 in test [1] was 7.70.

For `O=C(COc1ccc2sc(CNc3nncc(-c4c(Cl)cccc4Cl)n3)nc2c1)NCCO` [Example 18, 2-(2-{[5-(2,6-Dichloro-phenyl)-[1,2,4]triazin-3-ylamino]-methyl}-benzothiazol-5-yloxy)-N-(2-hydroxy-ethyl)-acetamide], the pIC50 in test [1] was 7.33. The MIC in test [2] (read-out: MIC for E. coli K12 AcrAB- TolC-, FBS=0 (MH2 broth only)) was greater than 32 µg/mL; in test [2] (read-out: MIC for E. coli K12 AcrAB- TolC-, decomplemented FBS=30%) it was greater than 32 µg/mL; in test [2] (read-out: MIC for E. coli K12 AcrAB- TolC-, normal (complemented) FBS=30%), 4 µg/mL.

`Cc1cc(NCCN(C)C)cc(C)c1-c1cnnc(NCc2nc3cc(OCCN)ccc3s2)n1` [Example 108, N-[4-(3-{[5-(2-Amino-ethoxy)-benzothiazol-2-ylmethyl]-amino}-[1,2,4]triazin-5-yl)-3,5-dimethyl-phenyl]-N',N'-dimethyl-ethane-1,2-diamine]: in test [1], the pIC50 is 5.85.
